Experimental data published in patent publication US20090123904A1, “COMPOSITION FOR PRESERVING CELLS, TISSUES, OR ORGANS, PRODUCTION PROCESS AND USES” (BIOCYDEX, SOCIETE PAR ACTIONS SIMPLIFIEE, priority 2007, published 2009).

Assay: Dissolution of the powder in ViaSpan preservation medium
Type: physicochemical
Details: in 10 ml of ViaSpan preservation medium, 100×-concentrated solution
Protocol: The production process consists in taking up 15.77 mg of propane diamine-β-CD in powder form in 10 ml of the preservation medium ViaSpan® to obtain a 100×-concentrated solution.
The preparation of the close mixture is carried out according to the following operating procedure: • 4.57 mg of resveratrol is added to 9 ml of a solution that contains 2495.3 mg of propane diamine-β-CD in water, • The pH is adjusted to 7.4, • The whole is stirred for 5 to 24 hours at 24° C. and in the absence of light, • The solution is next filtered in a Millipore hydrophilic PVDF filter and then freeze-dried to provide a powder that contains a close mixture whose resveratrol/propane diamine-β-CD molar ratio is 1/111, • The freeze-dried close mixture is preserved in amber bottles at 4° C., • 15.8 mg of the close mixture is then taken up in 10 ml of the ViaSpan® preservation medium to obtain a 100×-concentrated solution.

Dissolution of the powder: dissolves instantaneously
Compound: NCCCNCC1OC2OC3C(CO)OC(OC4C(CO)OC(OC5C(CO)OC(OC6C(CO)OC(OC7C(CO)OC(OC8C(CO)OC(OC1C(O)C2O)C(O)C8O)C(O)C7O)C(O)C6O)C(O)C5O)C(O)C4O)C(O)C3O (stereo not drawn) [propane diamine-β-CD, 6A-(3-aminopropylamino)-6A-deoxy-cyclomatoheptaose]
